target: T1, human GPR39 receptor (Homo sapiens, UniProt O43194); assay: Intracellular calcium response (FLIPR, Calcium-6) in PC3 cells, antagonism of agonist C3 (TC-G 1008) at EC90; format: cell-based; conditions: functional pKi (-Log10Ki) by modified Cheng-Prusoff from IC50; PC3 cells endogenously expressing human GPR39; 30 μM ZnCl2; agonist C3 (TC-G 1008) at EC90 1.5 μM; read-out: fpKi activity
T1 construct: PC3 Cells, Expressing the Endogenous Human GPR39 Receptor; endogenous in cells; host or cells: PC3 (human prostate adenocarcinoma) cells
T1 sequence (O43194 1-453): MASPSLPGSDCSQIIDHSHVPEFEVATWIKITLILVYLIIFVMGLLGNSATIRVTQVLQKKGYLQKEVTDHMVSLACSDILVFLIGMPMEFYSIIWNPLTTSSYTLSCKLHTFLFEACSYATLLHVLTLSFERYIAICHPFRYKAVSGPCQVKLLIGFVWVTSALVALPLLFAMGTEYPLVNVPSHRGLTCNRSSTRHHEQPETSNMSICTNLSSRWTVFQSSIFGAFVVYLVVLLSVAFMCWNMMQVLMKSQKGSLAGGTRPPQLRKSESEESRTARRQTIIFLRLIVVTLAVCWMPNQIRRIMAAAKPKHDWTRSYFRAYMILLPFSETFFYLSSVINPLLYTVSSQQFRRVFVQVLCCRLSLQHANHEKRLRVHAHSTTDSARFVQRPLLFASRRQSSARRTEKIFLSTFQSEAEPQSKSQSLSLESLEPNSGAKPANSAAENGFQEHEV
Summary of the method: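 Calcium-6-loaded cells in HEPES buffer pH 7.4 were given compound with 30 μM final ZnCl2 (0.32% DMSO) for 10 min, then challenged with 1.5 μM C3. Baseline-subtracted peak fluorescence expressed as % inhibition of the C3 response; IC50 from four-parameter logistic fit, reported as binned fpKi.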

**Q.** For `Cc1nnc(-c2ccc(C(=O)N3CCC(F)(F)CC3)c(-n3ccc(C(C)(C)C)n3)c2)[nH]1` [Example 122, [2-(3-tert-butylpyrazol-1-yl)-4-(5-methyl-4H-1,2,4-triazol-3-yl)phenyl]-(4,4-difluoropiperidin-1-yl)methanone], which Ki is on record?
**A.** ≤ 0.0501 µM

**Q.** How did the Ki turn out when `O=C(Nc1ccc(C(=O)N2CCS(=O)(=O)CC2)c(N2CCCC2=O)c1)C1CC1` [Example 123, N-[4-(1,1-dioxo-1,4-thiazinane-4-carbonyl)-3-(2-oxopyrrolidin-1-yl)phenyl]cyclopropanecarboxamide] was run?
**A.** > 6.31 µM

**Q.** With `CN1CCN(C(=O)c2ccc(NC(=O)C3CC3)cc2N2CCCC2=O)C(c2ccccc2)C1` (stereo not drawn) [Example 124, N-[4-(4-methyl-2-phenylpiperazine-1-carbonyl)-3-(2-oxopyrrolidin-1-yl)phenyl]cyclopropanecarboxamide] as the compound, how does the Ki read?
**A.** > 6.31 µM

From patent publication US20250333405A1, “ANTAGONISTS OF GPR39 PROTEIN” (VASOCARDEA, INC., priority 2024, published 2025)
